Measured values as given in patent US4277605A, “Chemical compounds” (priority 1980, dated 1981).

Legend:
[1] = Antidiarrheal activity, castor oil test in rats (modified Niemegeers); type: in vivo, male Sprague-Dawley rats; conditions: for ED50: Rattus norvegicus; for separation between antidiarrheal and analgetic activity (in words): from RAS; for RAS (Relative Antidiarrheal Specificity): Analgetic ED50 divided by the Antidiarrheal ED50, oral; for Antidiarrheal Activity ED50 (95% Confidence Limits) Castor Oil Test in Rats: 60 min
Method: A modification of the castor oil test described by Niemegeers [Arzneim.-Forsch., 22, 516-518 (1972)] was used. Male Sprague-Dawley rats (180-220 g) were dosed orally (in one case, subcutaneously) with a test compound or vehicle 1 hour before receiving a standard dose of castor oil orally (3 ml/rat). The rats were individually caged and examined for the presence of diarrhea hourly. Control animals had 100% incidence of diarrhea 1 hour after administering the castor oil. The percentage of rats protected from diarrhea was calculated 1 hour after the castor oil. Six rats were used per dose level.
(§1) Morphine sulfate was dissolved in distilled water.

[2] = Suppression of withdrawal jumping due to abstinence in withdrawn morphine-dependent mice
[3] = Analgetic activity, radiant heat method (Rat Tail Flick Test); type: in vivo, male Sprague-Dawley rats; conditions: Table I, oral, rats; for ED50: Rattus norvegicus, read-out: Analgetic Activity Rat Tail Flick ED50 (95% Confidence Limits)
Method: Analgetic activity was determined by the radiant heat method (Rat Tail Flick Test) of D'Amour and Smith [J. Pharm. Exp. Ther., 72, 74-79 (1941)] in Sprague-Dawley male rats (140-180 g). An all or none response was used to determine the dose of test material which produced at least a 100 percent increase in predose response time in 50 percent of the test animals (ED50). The ED50 values were based on at least 3 doses per drug (6 rats per dose level) and calculated by means of the Finney Dose Response procedure [Finney, D. J., Probit Analysis, University Press, Cambridge, England (1971)].
as §1

[4] = Suppression of body weight loss due to abstinence in withdrawn morphine-dependent rats; conditions: oral administration, FIG. 1
[5] = high oral doses (40-60 mg); cited from earlier work
[6] = even in its salt forms; cited from earlier work
[7] = Table II, d,l-Ia(1) subcutaneous, Ib(1) isomers oral
[8] = Table I, oral, rats, 1 hour after castor oil, read-out: Antidiarrheal Activity Castor Oil Test in Rats ED50 (95% Confidence Limits)
[9] = Table II, separate test, oral administration

Compound: CN1CC[C@]23CCC(=O)C[C@@H]2[C@H]1Cc1ccc(O)cc13 (relative stereo) [d,l-Ia(1), d,l-3-Hydroxy-7-oxo-N-methylisomorphinan]
- ED50 ([1]; sc, 1 h, Table II, separate test, subcutaneous administration, read-out: Antidiarrheal Activity ED50 (95% Confidence Limits) Castor Oil Test in Rats): 0.56 mg/kg
- antidiarrheal potency (in words) [1, 7]: potent antidiarrheal agent

Compound: CN1CC[C@]23CCC(=O)C[C@H]2[C@H]1Cc1ccc(O)cc13 (relative stereo) [d,l-Ib(1), d,l-3-Hydroxy-7-oxo-N-methylmorphinan]
- Percent Suppression of Withdrawal Jumping ([2]; 9 mg/kg po): 0%
- Percent Suppression of Withdrawal Jumping ([2]; 27 mg/kg po): 0%
- suppressant action on withdrawal jumping (in words) ([2]; oral, doses as high as 27 mg/kg): No suppressant action
- ED50 ([1]; 1 h, Table II, separate test, oral administration, read-out: Antidiarrheal Activity ED50 (95% Confidence Limits) Castor Oil Test in Rats): 1.08 mg/kg
- ED50 [1, 8]: 1.41 mg/kg
- separation between antidiarrheal and analgetic activity (in words) ([1]; oral, rats): excellent separation between antidiarrheal and analgetic activity
- ED50 [3]: > 150 mg/kg
- prevention of body weight loss due to morphine withdrawal / ability to substitute for morphine (in words) [4]: no significant prevention of body weight loss

Compound: CCOC(=O)C1(c2ccccc2)CCN(CCC(C#N)(c2ccccc2)c2ccccc2)CC1 [Diphenoxylate]
- suppression of withdrawal jumping (in words) ([2]; oral dose of 9 mg/kg): suppressed withdrawal jumping
- typical opioid effects [5]: euphoria, suppression or morphine abstinence, and a morphine-like physical dependence after chronic administration
- solubility (in words) [6]: highly insoluble
- RAS (Relative Antidiarrheal Specificity) ([1]; rats): 102
- ED50 [1, 8]: 0.11 mg/kg
- antidiarrheal potency (in words) ([1]; Table I, oral, rats): most potent antidiarrheal drug studied
- improvement of RAS over morphine ([1]; oral, rats): tenfold
- ED50 [3]: 11.2 mg/kg

Compound: CN1CC[C@]23c4c5ccc(O)c4O[C@H]2[C@@H](O)C=C[C@H]3[C@H]1C5 [Morphine SO4]
- ED50, Suppression of Withdrawal Jumping ([2]; sc, limits (0.9-3.1) printed on next line): 1.8
- RAS (Relative Antidiarrheal Specificity) ([1]; rats): 14
- Antidiarrheal Activity Castor Oil Test in Rats ED50 (95% Confidence Limits) ([1]; Table I, oral, rats, 1 hour after castor oil): 2.2 (1.5-3.1) mg/kg
- separation between antidiarrheal and analgetic activity (in words) ([1]; oral, rats): poor separation between antidiarrheal and analgetic activity
- Analgetic Activity Rat Tail Flick ED50 (95% Confidence Limits) [3]: 30.5 (26.3-35.0) mg/kg

Compound: COc1ccc2c3c1O[C@H]1C(=O)CC[C@@]4(O)[C@@H](C2)N(C)CC[C@]314 [Oxycodone]
- Percent Suppression of Withdrawal Jumping ([2]; 10 mg/kg po): 100%

Compound: CN1CC[C@]23CCC(=O)C[C@H]2[C@H]1Cc1ccc(O)cc13 [d-Ib(1), d-3-Hydroxy-N-methyl-7-oxomorphinan]
- Antidiarrheal Activity ED50 (95% Confidence Limits) Castor Oil Test in Rats [1, 9]: < 1

Compound: CN1CC[C@]23CCC(=O)C[C@H]2[C@H]1Cc1ccc(O)cc13 [l-Ib(1), l-3-Hydroxy-N-methyl-7-oxomorphinan]
- Antidiarrheal Activity ED50 (95% Confidence Limits) Castor Oil Test in Rats [1, 9]: 0.64 (0.46-0.86)
- antidiarrheal potency (in words) [1, 7]: most potent isomer
